Data taken from patent US11229622B2, “Cosmetological and pharmaceutical composition based on combinatorial quercetin derivative” (priority 2017, dated 2022).

Assays:
SBP of white rats = assay: Antihypertensive effect in normotensive white rats; type: in vivo; details: for Antihypertensive effect, %: intravenous, after 3 hours, Octadine 6.2 mg/kg, Greenflo 5.0 mg/kg (as thick chlorophyllipt extract), 0.025 mmol/kg
Experimental: The antihypertensive effect of the drugs was evaluated after 3 hours of observation. Digital data table.
For an objective comparison of the activity of the studied substances, ED30 was experimentally established (a unit of action that causes a decrease in SBP by 30%) for each drug. For this purpose, the value of the hypotensive effect of various doses of substances in three groups of five white rats was determined in experiment, the arithmetic mean of the obtained series and their standard errors were calculated. Then, digital data was plotted and ED30 was calculated.
An indicator of the true hypotensive effect of a new chemical is its ability to lower pathologically elevated SBP. To solve this problem, 5 adult white rats with spontaneous hypertension (weight 260-280 g) were used, in which, before the experiment, the level of SBP averaged 180±1.7 mm Hg. For comparison, an experiment was conducted on 5 white rats with normal SBP. 17.

[1] = system: systemic blood pressure of rabbits; assay: Antihypertensive effect in rabbits; type: in vivo; details: intravenous, 3 hours, Octadine 15.0 mg/kg (0.06 mmol/kg), Greenflo 10.0 mg/kg (0.05 mmol/kg)
[2] = system: systemic blood pressure of cats; assay: Antihypertensive effect in cats; type: in vivo; details: 3 hours, Octadine 20.0 mg/kg (0.08 mmol/kg), Greenflo 10.0 mg/kg (0.05 mmol/kg)
[3] = system: carrageenan edema of the foot; details: from references [14, 16]; cited from earlier work
[4] = Biological activity of fully substituted quercetins (test not specified)

N=C(N)NCCN1CCCCCCC1 [Octadine]
The effect, % (hypotensive) (SBP of white rats; dose 5.0 mg/kg): 18.0 ± 2.7% | The effect, % (hypotensive) (SBP of white rats; dose 10.0 mg/kg): 26.0 ± 1.5% | The effect, % (hypotensive) (SBP of white rats; dose 20.0 mg/kg): 33.0 ± 4.9% | Antihypertensive effect, % (SBP of white rats): 19.7 ± 2.2% | Antihypertensive effect, % (SBP of white rats; listed as octadine): 19.7±2.2% | Antihypertensive effect, % [1]: 32.0 ± 6.1% | Antihypertensive effect, % [2]: 35.0 ± 9.9%

O=C(O)Cc1ccccc1Nc1c(Cl)cccc1Cl [DN, sodium diclofenac]
ED 50, mg/kg [3]: 8.0 [14, 16] mg/kg

O=C(O)CCC(=O)Oc1cc(OC(=O)CCC(=O)O)c2c(=O)c(OC(=O)CCC(=O)O)c(-c3ccc(OC(=O)CCC(=O)O)c(OC(=O)CCC(=O)O)c3)oc2c1 [Fully succinylated quercetin, pentasuccinyl quercetin]
biological activity [4]: did not exhibit biological activity
